Results as given in patent US7320972B2, “4-Biarylyl-1-phenylazetidin-2-ones” (Microbia, Inc., priority 2003, dated 2008).

System: cholesterol absorption (serum 3H-cholesterol)
Assay: In Vivo Assay of Hypolipidemic Agents using the Rat Cholesterol Absorption Model
Design: species or system Sprague-Dawley rats
Settings: peroral; for inhibition in vivo at 1 mg/kg: po; for % inhibition at 10 mg/kg: 10 mg/kg (footnote 1)
Protocol: In Vivo Assay of Hypolipidemic Agents using the Rat Cholesterol Absorption Model. This model is based on models described by Burnett et al (2002), Bioorg. Med. Chem. Lett. 2002 Feb. 11;12(3):315-8 and J. Lipid Res. 1999 October;40(10):1747-57. Female Sprague-Dawley rats weighing 150-250 g are separated into groups of […] and fasted overnight. The animals (4-6/group) are dosed perorally with 300 μL test compounds in olive oil or suitable vehicle. Thirty minutes later, 3-5 microCuries ^3H-cholesterol per rat are delivered perorally in 300 μL olive oil. After three hours, 200 μL serum is collected, vortexed with scintillation fluid, and measured for radioactivity in a scintillation counter. Percent inhibition is defined as 100*(1−Ctest/Cctrl), where Ctest and Cctl refer to ^3H levels in serum for the test compound and for the vehicle only control, respectively. Percent inhibition values are reported for a fixed dose. The ED50 is the dose at which the half-maximal effect on serum ^3H levels is observed for a given test compound.
Representative compounds of the invention were tested in the Rat Cholesterol Absorption model above.

[1] = 1 mg/kg, serum 3H-cholesterol 3 h after cholesterol dose, vs vehicle control
[2] = serum 3H-cholesterol vs vehicle control

With O=C1[C@H](CC[C@H](O)c2ccc(F)cc2)[C@@H](c2ccc(-c3cccc(S)c3)cc2)N1c1ccc(F)cc1 [Example 119, (3R,4S)-1-(4-fluorophenyl)-3-[(3S)-3-(4-fluorophenyl)-3-hydroxypropyl]-4-(3′-mercaptobiphenyl-4-yl)azetidin-2-one] the inhibition in vivo at 1 mg/kg [1] was 56%.

O=C1[C@H](CC[C@H](O)c2ccc(F)cc2)[C@@H](c2ccc(-c3cccc([C@@H](O)[C@H]4OC(O)[C@H](O)[C@@H](O)[C@@H]4O)c3)cc2)N1c1ccccc1 (stereo partly drawn) [Example 72, (6R)-6-C-(4′-{(2S,3R)-3-[(3S)-3-(4-Fluorophenyl)-3-hydroxypropyl]-4-oxo-1-phenylazetidin-2-yl}biphenyl-3-yl)-D-glucopyranose] was tested, and the “% inhibition at 0.3 mg/kg” value (0.3 mg/kg (footnote 6), serum 3H-cholesterol vs vehicle control) was 27^6%.

In the case of O=C1[C@H](CC[C@H](O)c2ccc(F)cc2)[C@@H](c2ccc(-c3cccc(O[C@H]4O[C@@H](CO)[C@H](O)[C@@H](O)[C@@H]4O)c3)cc2)N1c1ccc(F)cc1 [Example 95, 4′-{(2S,3R)-1-(4-fluorophenyl)-3-[(3S)-3-(4-fluorophenyl)-3-hydroxypropyl]-4-oxoazetidin-2-yl}biphenyl-3-yl β-L-glucopyranoside], the inhibition in vivo at 1 mg/kg [1] was 57%.

Compound O=C1[C@H](CC[C@H](O)c2ccc(F)cc2)[C@@H](c2ccc(-c3ccc(O)cc3)s2)N1c1ccccc1 [Example 51, (3R,4S)-3-[(3S)-3-(4-Fluorophenyl)-3-hydroxypropyl]-4-[5-(4-hydroxyphenyl)-2-thienyl]-1-phenylazetidin-2-one] has an inhibition in vivo at 1 mg/kg [1] of 39%.

In the case of O=C(O)c1cccc(-c2ccc([C@@H]3[C@@H](CC[C@H](O)c4ccc(F)cc4)C(=O)N3c3ccc(F)cc3)cc2)c1 [Example 21, 4′-{(2S,3R)-1-(4-fluorophenyl)-3-[(3S)-3-(4-fluorophenyl)-3-hydroxypropyl]-4-oxoazetidin-2-yl]biphenyl-3-carboxylic acid], the inhibition in vivo at 1 mg/kg [1] was 68%.

Work on O=C1[C@H](CC[C@H](O)c2ccc(F)cc2)[C@@H](c2ccc(-c3cccc([C@H](O)[C@@H](O)[C@@H](O)[C@H](O)[C@@H](O)CO)c3)cc2O)N1c1ccccc1 [Example 75, (6S)-6-C-(4′-{(2S,3R)-3-[(3S)-3-(4-Fluorophenyl)-3-hydroxypropyl]-4-oxo-1-phenylazetidin-2-yl}-3′-hydroxybiphenyl-3-yl)-D-glucitol] yielded an inhibition in vivo at 1 mg/kg [1] of 68%.

In the case of O=C1[C@H](CC[C@H](O)c2ccc(F)cc2)[C@@H](c2ccc(-c3cccc([C@H](O)[C@H]4OC(O)[C@H](O)[C@@H](O)[C@@H]4O)c3)cc2O)N1c1ccccc1 (stereo partly drawn) [Example 73, (6S)-6-C-(4′-{(2S,3R)-3-[(3S)-3-(4-Fluorophenyl)-3-hydroxypropyl]-4-oxo-1-phenylazetidin-2-yl}-3′-hydroxybiphenyl-3-yl)-D-glucopyranose], the inhibition in vivo at 1 mg/kg [1] was 59%.

With Nc1ccc(-c2ccc([C@@H]3[C@@H](CC[C@H](O)c4ccc(F)cc4)C(=O)N3c3ccc(F)cc3)cc2)cc1 [Example 28, (3R,4S)-4-(4′-aminobiphenyl-4-yl)-1-(4-fluorophenyl)-3-[(3S)-3-(4-fluorophenyl)-3-hydroxypropyl]azetidin-2-one] the inhibition in vivo at 1 mg/kg [1] was 56%.

O=C1[C@H](CC[C@H](O)c2ccc(F)cc2)[C@@H](c2ccc(-c3cccc(O)c3)cn2)N1c1ccccc1 [Example 49, (3R,4S)-3-[(3S)-3-(4-Fluorophenyl)-3-hydroxypropyl]-4-[5-(3-hydroxyphenyl)pyridin-2-yl]-1-phenylazetidin-2-one] was tested, and the inhibition in vivo at 1 mg/kg [1] was 30%.

For O=C1[C@H](CC[C@H](O)c2ccc(F)cc2)[C@@H](c2ccc(Br)cc2)N1c1ccccc1 [Example 46, (3R,4S)-4-(4-Bromophenyl)-3-[(3S)-3-(4-fluorophenyl)-3-hydroxypropyl]-1-phenylazetidin-2-one], the inhibition in vivo at 1 mg/kg [1] was 30%.

In the case of CC(=O)Nc1cccc(-c2ccc([C@@H]3[C@@H](CC[C@H](O)c4ccc(F)cc4)C(=O)N3c3ccc(F)cc3)cc2)c1 [Example 26, N-(4′-{(2S,3R)-1-(4-fluorophenyl)-3-[(3S)-3-(4-fluorophenyl)-3-hydroxypropyl]-4-oxoazetidin-2-yl}biphenyl-3-yl)acetamide], the “% inhibition at 10 mg/kg” value [2] was 76^1%.

O=C(O)c1ccc(-c2ccc([C@@H]3[C@@H](CC[C@H](O)c4ccc(F)cc4)C(=O)N3c3ccc(F)cc3)cc2)cc1 [Example 22, 4′-{(2S,3R)-1-(4-fluorophenyl)3-[(3S)-3-(4-fluorophenyl)-3-hydroxypropyl]-4-oxoazetidin-2-yl]biphenyl-4-carboxylic acid] showed an inhibition in vivo at 1 mg/kg [1] of 52%.

With O=C1[C@H](CC[C@H](O)c2ccc(F)cc2)[C@@H](c2ccc(-c3cccc(B(O)O)c3)cc2)N1c1ccc(F)cc1 [Example 115, (4′-{(2S,3R)-1-(4-fluorophenyl)-3-[(3S)-3-(4-fluorophenyl)-3-hydroxypropyl]-4-oxoazetidin-2-yl}biphenyl-3-yl)boronic Acid] the inhibition in vivo at 1 mg/kg [1] was 70%.

O=C1[C@H](CC[C@H](O)c2ccc(F)cc2)[C@@H](c2ccc(-c3ccc(O)cc3)cc2O)N1c1ccccc1 [Example 125, (3R,4S)-4-(3,4′-dihydroxybiphenyl-4-yl)-3-[(3S)-3-(4-fluorophenyl)-3-hydroxypropyl]-1-phenylazetidin-2-one] showed an inhibition in vivo at 1 mg/kg [1] of 64%.

With O=C1[C@H](CC[C@H](O)c2ccc(F)cc2)[C@@H](c2ccc(-c3ccc(CO)cc3)cc2)N1c1ccc(F)cc1 [Example 18] the inhibition in vivo at 1 mg/kg [1] was 48%.

In the case of O=C1[C@H](CC[C@H](O)c2ccc(F)cc2)[C@@H](c2ccc(-c3cccc([N+](=O)[O-])c3)cc2)N1c1ccc(F)cc1 [Example 23, (3R,4S)-1-(4-fluorophenyl)-3-[(3S)-3-(4-fluorophenyl)-3-hydroxypropyl]-4-(3′-nitrobiphenyl-4-yl)azetidin-2-one], the “% inhibition at 10 mg/kg” value [2] was 54^1%.

In the case of COc1ccc(C=O)c(-c2ccc([C@@H]3[C@@H](CC[C@H](O)c4ccc(F)cc4)C(=O)N3c3ccc(F)cc3)cc2)c1 [Example 85, 4′-{(2S,3R)-1-(4-fluorophenyl)-3-[(3S)-3-(4-fluorophenyl)-3-hydroxypropyl]-4-oxoazetidin-2-yl}-5-methoxybiphenyl-2-carbaldehyde], the inhibition in vivo at 1 mg/kg [1] was 15%.

For COc1cc(F)cc(-c2ccc([C@@H]3[C@@H](CC[C@H](O)c4ccc(F)cc4)C(=O)N3c3ccc(F)cc3)cc2)c1 [Example 111, (3R,4S)-4-(3′-fluoro-5′-methoxybiphenyl-4-yl)-1-(4-fluorophenyl)-3-[(3S)-3-(4-fluorophenyl)-3-hydroxypropyl]azetidin-2-one], the inhibition in vivo at 1 mg/kg [1] was 72%.

In the case of N#Cc1cccc(-c2ccc([C@@H]3[C@@H](CC[C@H](O)c4ccc(F)cc4)C(=O)N3c3ccc(F)cc3)cc2)c1 [Example 14, 4′-{(2S,3R)-1-(4-fluorophenyl)-3-[(3S)-3-(4-fluorophenyl)-3-hydroxypropyl]-4-oxoazetidin-2-yl}biphenyl-3-carbonitrile], the “% inhibition at 5 mg/kg” value (5 mg/kg (footnote 3), serum 3H-cholesterol vs vehicle control) was 32^3%.

With O=C1[C@H](CC[C@H](O)c2ccc(F)cc2)[C@@H](c2ccc(-c3cc(O)cc(O)c3)cc2)N1c1ccc(F)cc1 [Example 114, (3R,4S)-4-(3′,5′-dihydroxybiphenyl-4-yl)-1-(4-fluorophenyl)-3-[(3S)-3-(4-fluorophenyl)-3-hydroxypropyl]azetidin-2-one] the inhibition in vivo at 1 mg/kg [1] was 72%.

For COc1cc(-c2ccc([C@@H]3[C@@H](CC[C@H](O)c4ccc(F)cc4)C(=O)N3c3ccc(F)cc3)cc2)ccc1O [Example 102, (3R,4S)-1-(4-fluorophenyl)-3-[(3S)-3-(4-fluorophenyl)-3-hydroxypropyl]-4-(4′-hydroxy-3′-methoxybiphenyl-4-yl)azetidin-2-one], the inhibition in vivo at 1 mg/kg [1] was 56%.

For O=C1[C@H](CC[C@H](O)c2ccc(F)cc2)[C@@H](c2ccc(-c3cccc(C[C@@H]4O[C@H](CO)[C@@H](O)[C@H](O)[C@H]4O)c3)cc2)N1c1ccc(F)cc1 [Example 117], the “% inhibition at 1 mg/kg” value [1] was 26%.

O=C(O)Cc1ccc(-c2ccc([C@@H]3[C@@H](CC[C@H](O)c4ccc(F)cc4)C(=O)N3c3ccc(F)cc3)cc2)cc1 [Example 88, (4′-{(2S,3R)-1-(4-fluorophenyl)-3-[(3S)-3-(4-fluorophenyl)-3-hydroxypropyl]-4-oxoazetidin-2-yl}biphenyl-4-yl)acetic Acid] gave an inhibition in vivo at 1 mg/kg [1] of 30%.

COc1ccc(-c2ccc([C@@H]3[C@@H](CC[C@H](O)c4ccc(F)cc4)C(=O)N3c3ccc(F)cc3)cc2)c(OC)c1 [Example 97, (3R,4S)-4-(2′,4′-dimethoxybiphenyl-4-yl)-1-(4-fluorophenyl)-3-[(3S)-3-(4-fluorophenyl)-3-hydroxypropyl]azetidin-2-one] gave an inhibition in vivo at 1 mg/kg [1] of 40%.

CCCCOc1cccc(-c2ccc([C@@H]3[C@@H](CC[C@H](O)c4ccc(F)cc4)C(=O)N3c3ccc(F)cc3)cc2)c1 [Example 109, (3R,4S)-4-(3′-butoxybiphenyl-4-yl)-1-(4-fluorophenyl)-3-[(3S)-3-(4-fluorophenyl)-3-hydroxypropyl]azetidin-2-one] gave an inhibition in vivo at 1 mg/kg [1] of 52%.

In the case of O=C1[C@H](CC[C@H](O)c2ccc(F)cc2)[C@@H](c2ccc(-c3cccc(S(=O)(=O)O)c3)cc2)N1c1ccc(F)cc1 [Example 118, 4′-{(2S,3R)-1-(4-fluorophenyl)-3-[(3S)-3-(4-fluorophenyl)-3-hydroxypropyl]-4-oxoazetidin-2-yl}biphenyl-3-sulfonic Acid], the inhibition in vivo at 1 mg/kg [1] was 61%.
